Measured values from publication PMC11073699, “Odorant receptors for floral- and plant-derived volatiles in the yellow fever mosquito, Aedes aegypti (Diptera: Culicidae)” (PLOS ONE, 2024).
pEC50: −log10 of the molar value. Values joined by “and” are separate entries in the source; they are usually repeats but may differ in a detail not shown here. Equal values may be shown once.

Legend:
AaegOR15 = biological target: T1, AaegOR15 (Aedes aegypti, UniProt A0A6B9QIR2); test: Two-electrode voltage clamp of Xenopus laevis oocytes expressing AaegOR15/Orco (blends, unitary compounds, concentration-response); type: cell-based; details: for Raw data (Responses in nA), compounds of blend Alcohols 2: individual oocytes 1-10 (replicates); for Raw Data, concentration-response: no unit printed in this section (nA in the sections above); for Raw data (Responses in nA), phenethyl propionate versus 1-hexanol: separate set of 7 oocytes (replicates); for response of OR15 to unitary compounds: individual compounds
T1 sequence (A0A6B9QIR2 1-390): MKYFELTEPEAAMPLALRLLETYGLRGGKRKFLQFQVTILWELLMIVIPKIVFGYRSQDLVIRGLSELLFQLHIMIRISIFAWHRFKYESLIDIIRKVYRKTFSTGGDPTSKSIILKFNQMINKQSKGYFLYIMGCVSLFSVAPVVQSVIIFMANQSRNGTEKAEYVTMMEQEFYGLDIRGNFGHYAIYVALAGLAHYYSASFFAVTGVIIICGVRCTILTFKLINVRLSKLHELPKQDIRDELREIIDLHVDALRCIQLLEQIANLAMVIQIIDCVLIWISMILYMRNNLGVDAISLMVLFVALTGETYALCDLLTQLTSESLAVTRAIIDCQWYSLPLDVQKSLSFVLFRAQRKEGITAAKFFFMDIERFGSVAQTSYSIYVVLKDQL
T1 sequence (Q178U6 1-478 partner): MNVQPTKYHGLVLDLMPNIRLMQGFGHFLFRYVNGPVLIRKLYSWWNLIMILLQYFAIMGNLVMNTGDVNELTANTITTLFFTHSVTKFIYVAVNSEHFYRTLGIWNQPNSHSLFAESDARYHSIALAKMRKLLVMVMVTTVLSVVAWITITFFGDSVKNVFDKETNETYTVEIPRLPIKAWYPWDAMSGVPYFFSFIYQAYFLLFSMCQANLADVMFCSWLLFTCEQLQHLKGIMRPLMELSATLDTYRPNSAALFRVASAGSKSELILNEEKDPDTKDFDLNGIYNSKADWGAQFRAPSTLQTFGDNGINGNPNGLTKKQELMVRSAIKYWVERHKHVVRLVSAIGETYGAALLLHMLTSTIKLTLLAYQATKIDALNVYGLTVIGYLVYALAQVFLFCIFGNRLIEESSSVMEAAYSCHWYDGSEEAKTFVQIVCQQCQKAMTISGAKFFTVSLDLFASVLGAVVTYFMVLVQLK
Excerpt: (§1) The coding regions of ten AaegOR genes of interest (S3 File) and AaegOrco were synthesized by Twist Bioscience (San Francisco, CA, USA) and cloned into the pENTR plasmid. The Gateway LR directional cloning system (Invitrogen Corp., Carlsbad, CA, USA) was utilized to subclone AaegOR coding regions into the pSP64t-RFA oocyte expression plasmid. Plasmids were purified using the GeneJet Plasmid Miniprep Kit (ThermoFisher Scientific, Waltham, MA, USA). Purified plasmids were sequenced in both directions to confirm coding regions.
(§2) Chemical compounds (S6 File) used in the deorphanization of AaegORs were purchased from Acros Organics (Morris, NJ, USA), Alfa Aesar (Ward Hill, MA, USA), and ThermoFisher Scientific (Waltham, MA, USA) at the highest purity available. Compounds were stored as 1M stocks in 100% DMSO. Serial dilutions of each compound were prepared in 10% DMSO and blended by chemical class.
(§3) pSP64t-RFA: AaegOR clones were linearized using Xbal, and cRNAs were synthesized using the mMESSAGE mMACHINE ® SP6 kit (Life Technologies, Carlsbad, CA, USA). Xenopus laevis stage V-VII oocytes purchased from Xenopus1 (Dexter, MI, USA) were stored at 18°C in Incubation medium (ND96 96 with 5% dialyzed horse serum, 50μg/mL gentamycin, 100μg/mL streptomycin, 100μg/mL penicillin, and 550μg/mL sodium pyruvate). 30nL of cRNA was injected into multiple oocytes using a microinjection syringe pump (World Precision Instruments, Sarasota, FL, USA) maintained at 18°C for 48–72 hrs. Odorant blends were perfused across individual oocytes for 10–15 seconds, held at a resting membrane potential of -80 mV using an OC-725C oocyte clamp (Warner Instruments, LLC, Hamden, CT, USA). Induced currents were measured indirectly using the two-electrode voltage clamp technique (TEVC). Following each stimulus, currents were allowed to return to baseline before further stimulation. Data was captured using the Digidata 1550 B digitizer and PClamp10 software (Molecular Devices, San Jose, CA, USA). Concentration-response curves were generated by perfusing unitary odorants over oocytes at increasing concentrations from [10^-3M] to [10^-9M]. Data were analyzed using GraphPad Prism 8 (GraphPad Software Inc., La Jolla, CA, USA). At least two biological replicates were conducted at each concentration and for each compound. Data for at least seven oocytes responding to each compound was analyzed (S7 File).

AaegOR8 = biological target: T2, AaegOR8 (Aedes aegypti, UniProt Q16MN0); test: Two-electrode voltage clamp of Xenopus laevis oocytes expressing AaegOR8/Orco (blends, unitary compounds, concentration-response); type: cell-based; details: for Raw data (Responses in nA) Oocyte 1 / Raw data (Responses in nA) Oocyte 2 / Raw data (Responses in nA) Oocyte 3 / Raw data (Responses in nA) Oocyte 4 / Raw data (Responses in nA) Oocyte 5 / Raw data (Responses in nA) Oocyte 6 / Raw data (Responses in nA) Oocyte 7 / Raw data (Responses in nA) Oocyte 8: Alcohols 2 unitary compounds
T2 sequence (Q16MN0 32-422): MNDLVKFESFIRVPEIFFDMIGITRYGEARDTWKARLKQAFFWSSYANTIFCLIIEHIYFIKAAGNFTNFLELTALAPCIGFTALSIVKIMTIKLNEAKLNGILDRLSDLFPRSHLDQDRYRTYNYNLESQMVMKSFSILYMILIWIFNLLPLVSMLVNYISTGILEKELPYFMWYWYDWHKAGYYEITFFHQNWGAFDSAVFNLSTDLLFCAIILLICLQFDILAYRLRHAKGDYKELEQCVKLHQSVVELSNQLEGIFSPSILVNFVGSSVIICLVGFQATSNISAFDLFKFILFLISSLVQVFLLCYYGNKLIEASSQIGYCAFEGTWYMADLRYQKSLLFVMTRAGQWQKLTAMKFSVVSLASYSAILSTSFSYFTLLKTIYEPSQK
T2 sequence (Q178U6 1-478 partner): T1 sequence (Q178U6 1-478 partner)
Excerpt: as §1, §2, §3

[1] = unitary compounds of Alcohols 2
[2] = AaegOR15/Orco expressing oocytes, TEVC

| SMILES | Raw data (Responses in nA), compounds of blend Alcohols 2 (AaegOR15; [1]) | Raw data (Responses in nA) Oocyte 1 (AaegOR8) | Raw data (Responses in nA) Oocyte 2 (AaegOR8) | Raw data (Responses in nA) Oocyte 3 (AaegOR8) | Raw data (Responses in nA) Oocyte 4 (AaegOR8) | Raw data (Responses in nA) Oocyte 5 (AaegOR8) | Raw data (Responses in nA) Oocyte 6 (AaegOR8) | Raw data (Responses in nA) Oocyte 7 (AaegOR8) | Raw data (Responses in nA) Oocyte 8 (AaegOR8) | response of OR15 to unitary compounds (AaegOR15; [2]) | also measured |
| --- | --- | --- | --- | --- | --- | --- | --- | --- | --- | --- | --- |
| C=CC(C)(O)CCC=C(C)C (racemic) [(+/-)-linalool] | 0.0 nA (2×) and 5.0 nA and 10.0 nA (4×) and 20.0 nA and 40.0 nA and 15.0 nA | – | – | – | – | – | – | – | – | – | Normalized response, compounds of blend Alcohols 2, Average (AaegOR15; unitary compounds of Alcohols 2, average of 10 oocytes, 1-hexanol = 100): 2.4; Normalized response, compounds of blend Alcohols 2 (AaegOR15; unitary compounds of Alcohols 2, individual oocytes 1-10, normalized to the largest response of each oocyte (1-hexanol = 100)): 0.0 (2×) and 1.4 and 1.3 and 1.5 and 1.9 and 1.7 and 5.4 and 5.5 and 5.6 |
| CCCCCCO [1-hexanol] | 50.0 nA and 90.0 nA and 725.0 nA and 780.0 nA and 70.0 nA and 670.0 nA and 1070.0 nA and 580.0 nA and 740.0 nA and 275.0 nA | 10.0 nA | 10.0 nA | 40.0 nA | 15.0 nA | 30.0 nA | 170.0 nA | 120.0 nA | 10.0 nA | – | Raw Data, concentration-response (AaegOR15; 1e-7 M, individual oocytes 1-10): 60.0 (2×) and 50.0 (2×) and 70.0 and 55.0 and 40.0 and 75.0 and 15.0 and 35.0; Raw Data, concentration-response (AaegOR15; 5e-7 M, individual oocytes 1-10): 160.0 (2×) and 155.0 and 230.0 and 165.0 and 140.0 and 60.0; Raw Data, concentration-response (AaegOR15; 1e-6 M, individual oocytes 1-10): 180.0 and 350.0 and 220.0 (2×) and 365.0 and 90.0 and 160.0; Raw Data, concentration-response (AaegOR15; 5e-6 M, individual oocytes 1-10): 360.0 and 450.0 and 465.0 and 645.0 and 445.0 and 395.0 and 590.0 and 415.0 and 190.0 and 310.0; Raw Data, concentration-response (AaegOR15; 1e-5 M, individual oocytes 1-10): 410.0 and 480.0 and 510.0 and 730.0 and 495.0 and 435.0 and 655.0 and 450.0 and 360.0; Raw Data, concentration-response (AaegOR15; 5e-5 M, individual oocytes 1-10): 440.0 and 510.0 and 525.0 and 770.0 and 515.0 and 455.0 and 665.0 and 475.0 and 370.0; Raw Data, concentration-response (AaegOR15; 0.0001 M, individual oocytes 1-10): 330.0 and 470.0 and 400.0 and 665.0 and 440.0 and 350.0 and 460.0 and 370.0 and 200.0 and 280.0; pEC50 (AaegOR15; AaegOR15/Orco expressing oocytes, TEVC, concentration-response of normalized current): ~5.97 and 5.97; Raw data (Responses in nA), phenethyl propionate versus 1-hexanol (AaegOR15): 30.0 nA and 100.0 nA and 180.0 nA and 120.0 nA and 110.0 nA and 90.0 nA and 95.0 nA |
| C=CC(O)CCCCC (centres unmarked) [1-octen-3-ol] | 10.0 nA and 20.0 nA (2×) and 200.0 nA and 230.0 nA and 210.0 nA and 370.0 nA and 110.0 nA and 240.0 nA and 80.0 nA | 190.0 nA | 160.0 nA | 280.0 nA | 780.0 nA | 980.0 nA | 2200.0 nA | 2720.0 nA | 240.0 nA | – | pEC50 (AaegOR8; AaegOR8/Orco expressing oocytes, TEVC, concentration-response of normalized current): 5.67 |
| C[C@@H]1CC[C@H]2C(C)(C)[C@H]3C[C@@]12CC[C@@]3(C)O [Cedrol] | 0.0 nA (3×) and 5.0 nA (2×) and 10.0 nA (3×) and 25.0 nA and 20.0 nA | 0.0 nA | 0.0 nA | 0.0 nA | 0.0 nA | 0.0 nA | 0.0 nA | 0.0 nA | 0.0 nA | – | – |
| COc1ccccc1 [anisole] | 10.0 nA and 20.0 nA (2×) and 220.0 nA and 280.0 nA and 290.0 nA and 310.0 nA and 170.0 nA and 260.0 nA and 100.0 nA | 0.0 nA | 0.0 nA | 0.0 nA | 0.0 nA | 0.0 nA | 10.0 nA | 5.0 nA | 0.0 nA | – | – |
| CC/C=C\CCO [cis-3-hexen-1-ol] | 20.0 nA and 25.0 nA (2×) and 360.0 nA and 370.0 nA and 350.0 nA and 580.0 nA and 250.0 nA and 520.0 nA and 140.0 nA | 0.0 nA | 0.0 nA | 0.0 nA | 0.0 nA | 5.0 nA | 0.0 nA | 10.0 nA | 0.0 nA | additional responses | – |
| OC1CCCCC1 [cyclohexanol] | 5.0 nA and 10.0 nA and 30.0 nA and 55.0 nA (2×) and 0.0 nA and 40.0 nA (2×) and 80.0 nA and 35.0 nA | 0.0 nA | 0.0 nA | 0.0 nA | 0.0 nA | 0.0 nA | 0.0 nA | 0.0 nA | 0.0 nA | – | – |
| CCCCCC=O [hexanal] | 0.0 nA (2×) and 10.0 nA and 80.0 nA and 85.0 nA and 110.0 nA (2×) and 160.0 nA and 115.0 nA and 40.0 nA | – | – | – | – | – | – | – | – | – | – |
| CCC(=O)OCCc1ccccc1 [phenethyl propionate] | – | – | – | – | – | – | – | – | – | additional responses | Secondary Ligand (AaegOR15; AaegOR15, secondary ligand identified during the functional characterizations): phenethyl propionate; Normalized response, phenethyl propionate, Average (AaegOR15; average of 7 oocytes, relative to 1-hexanol): 56.0; Raw data (Responses in nA), phenethyl propionate versus 1-hexanol (AaegOR15): 10.0 nA and 100.0 nA and 90.0 nA and 70.0 nA (2×) and 40.0 nA (2×) |
| CCC/C=C/CO [trans-2-hexen-1-ol] | 30.0 nA (2×) and 40.0 nA and 310.0 nA and 480.0 nA (2×) and 375.0 nA and 270.0 nA and 440.0 nA and 135.0 nA | 0.0 nA | 0.0 nA | 0.0 nA | 0.0 nA | 0.0 nA | 0.0 nA | 0.0 nA | 0.0 nA | additional responses | – |
